# Read-outs that look alike come from different tables or passages of the source. Marks after values point to notes of the source that are not given here.
# Experiments:
# [1] = tested on: AgOR8/Orco; conditions: ref 33; cited from earlier work
# [2] = tested on: OBP proteins; conditions: ref 41; cited from earlier work
# [3] = target: DOr85b/Orco (Drosophila melanogaster, UniProt Q9VHQ7); conditions: cited from earlier work
# [4] = target: T1, OR71a (Drosophila melanogaster, UniProt Q9VUK5); test: CNT-FET sensor covalently functionalized with Or71a nanodiscs (Example 3); format: binding
# T1 sequence (Q9VUK5 1-378): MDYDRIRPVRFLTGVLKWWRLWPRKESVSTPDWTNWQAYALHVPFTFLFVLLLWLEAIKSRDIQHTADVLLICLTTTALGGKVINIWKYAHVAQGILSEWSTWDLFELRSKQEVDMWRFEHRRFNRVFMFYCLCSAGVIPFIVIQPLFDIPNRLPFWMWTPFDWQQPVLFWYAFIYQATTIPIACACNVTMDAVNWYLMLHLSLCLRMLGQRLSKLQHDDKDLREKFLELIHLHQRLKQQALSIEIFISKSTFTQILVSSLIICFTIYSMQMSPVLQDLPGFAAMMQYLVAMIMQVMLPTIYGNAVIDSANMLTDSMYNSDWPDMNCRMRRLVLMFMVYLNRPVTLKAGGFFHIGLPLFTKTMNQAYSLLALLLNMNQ
# Procedure: The dispersion was sonicated until a clear solution was obtained. The temperature was kept at 25° C. throughout the sonication process. The thiolpyridine solution was prepared by dissolving 10 mg of 2-Mercaptopyridine (99%, Sigma Aldrich) in 1 ml of methanol. The solution was spun coated on a polydimethylsiloxane (PDMS) surface at 2000 rpm for one minute. Before the spin coating process, the PDMS surface was cleaned by a 50 W Oxygen plasma for 1 minute to improve the wettability. The cleaned substrates were placed upside down on the PDMS surface for three minutes and washed in ethanol to remove the excess thiolpyridine molecules. Then the substrates were transferred into the CNT suspension and immersed into the suspension for 10 minutes. The samples were removed from the suspension and dipped into Ethanol for another 10 minutes to remove the thiolpyridine molecules in the SWNT network. The alignment markers were deposited by defining the markers by photolithography and thermal evaporation of 5 nm Chromium and 50 nm of Gold. The metal Lift off was done by acetone immersion for 15 minutes followed by an Isopropyl alcohol (IPA) wash and N2 blow dry. The result is a uniform thin film CNT network covering the entire substrate surface. The purification procedure is a variation on the one detailed in […] et al. 2013^14. […] Purity was assessed on Coomassie stained SDS-PAGE gels and Western blotting. […]
# [5] = target: T1, OR71a; test: EIS sensor, Or71a liposomes on gold electrode, optimized conditions (Example 5); format: binding; conditions: EIS
# [6] = target: T2, AgOR1/Orco (Anopheles gambiae, UniProt Q8WTE7); conditions: ref 33; cited from earlier work
# T2 construct: host or cells: Xenopus oocytes
# [7] = tested on: ApolOR1/Orco; conditions: +ApolPBP2; estimated visually from graph; cited from earlier work
# [8] = tested on: BmOR3/Orco; conditions: ref 13; cited from earlier work
# [9] = tested on: BmOR3/Orco; conditions: cited from earlier work
# [10] = tested on: BmOR1/Ocro; conditions: ref 13; cited from earlier work
# [11] = tested on: BmOR1/Orco; conditions: cited from earlier work
# [12] = tested on: BmOr1/Orco; conditions: cited from earlier work
# [13] = tested on: EpOR3/Orco; conditions: estimated visually from graph; cited from earlier work
# [14] = tested on: ECB (Z) OR3/Orco; conditions: ref 2; cited from earlier work
# [15] = tested on: OscaOR1/Orco; conditions: cited from earlier work
# [16] = tested on: OnOr1/Orco; conditions: ref 32; cited from earlier work
# [17] = tested on: DiOR1/Orco; conditions: cited from earlier work
# [18] = tested on: SexiOR13/Orco; conditions: ref 26; cited from earlier work
# [19] = tested on: SexiOR16/Orco; conditions: ref 26; cited from earlier work
# [20] = tested on: HVOR6/Orco; conditions: ref 31; cited from earlier work
# [21] = tested on: MsiOR1/Orco; conditions: cited from earlier work
# [22] = tested on: PxOR1/Orco; conditions: cited from earlier work
# [23] = tested on: HVOR13/Orco; conditions: ref 31; cited from earlier work
# [24] = tested on: BmOr47/Orco; conditions: cited from earlier work
# [25] = tested on: BmOr45/Orco; conditions: cited from earlier work
# [26] = target: DmOr22a/Orco (Drosophila melanogaster, UniProt P81909); conditions: cited from earlier work
# [27] = tested on: AgOr65/Orco; conditions: given as Log, cited from earlier work
# [28] = tested on: AgOr65/Orco; conditions: ref 33; cited from earlier work
# [29] = tested on: AgOr48/Orco; conditions: given as Log, cited from earlier work
# [30] = tested on: BdorOBP2; conditions: ref 39; cited from earlier work
# [31] = tested on: EpOR1/Orco; conditions: cited from earlier work
# [32] = tested on: EpOR3/Orco; conditions: ref 19; cited from earlier work
# [33] = tested on: AgOr10/Orco; conditions: ref 33; cited from earlier work
# [34] = target: T3, AgOR2/Orco (Anopheles gambiae, UniProt Q8WTE6); conditions: ref 33; cited from earlier work
# T3 construct: host or cells: Xenopus oocytes
# [35] = tested on: BmOr19/Orco; conditions: cited from earlier work
# DOr85b/Orco, sequence (Q9VHQ7 whole entry): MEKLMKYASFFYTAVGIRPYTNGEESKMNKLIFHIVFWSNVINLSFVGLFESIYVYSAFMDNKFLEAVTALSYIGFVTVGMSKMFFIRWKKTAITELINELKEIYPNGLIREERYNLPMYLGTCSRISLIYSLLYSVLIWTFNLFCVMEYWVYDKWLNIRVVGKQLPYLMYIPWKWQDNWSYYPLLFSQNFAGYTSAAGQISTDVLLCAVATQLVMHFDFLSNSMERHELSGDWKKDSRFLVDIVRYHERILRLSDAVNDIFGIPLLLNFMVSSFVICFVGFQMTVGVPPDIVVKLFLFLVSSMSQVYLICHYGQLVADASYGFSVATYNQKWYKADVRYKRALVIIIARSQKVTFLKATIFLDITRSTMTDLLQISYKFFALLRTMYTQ
# DOr85b/Orco, sequence (Q9VNB5 whole entry partner): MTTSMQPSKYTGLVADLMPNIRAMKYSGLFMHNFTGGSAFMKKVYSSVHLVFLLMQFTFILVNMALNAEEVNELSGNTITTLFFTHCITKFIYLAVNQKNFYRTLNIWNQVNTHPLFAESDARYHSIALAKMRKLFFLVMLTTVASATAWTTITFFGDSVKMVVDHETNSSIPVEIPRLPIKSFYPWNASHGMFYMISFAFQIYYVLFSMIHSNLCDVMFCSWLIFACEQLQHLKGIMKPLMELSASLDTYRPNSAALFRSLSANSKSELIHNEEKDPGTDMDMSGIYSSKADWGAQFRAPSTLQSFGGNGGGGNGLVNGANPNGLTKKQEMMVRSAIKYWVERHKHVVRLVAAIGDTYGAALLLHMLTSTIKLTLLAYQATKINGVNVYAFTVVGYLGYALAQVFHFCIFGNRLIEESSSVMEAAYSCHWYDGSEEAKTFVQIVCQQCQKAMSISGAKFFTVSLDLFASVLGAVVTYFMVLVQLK
# DmOr22a/Orco, sequence (P81909 whole entry): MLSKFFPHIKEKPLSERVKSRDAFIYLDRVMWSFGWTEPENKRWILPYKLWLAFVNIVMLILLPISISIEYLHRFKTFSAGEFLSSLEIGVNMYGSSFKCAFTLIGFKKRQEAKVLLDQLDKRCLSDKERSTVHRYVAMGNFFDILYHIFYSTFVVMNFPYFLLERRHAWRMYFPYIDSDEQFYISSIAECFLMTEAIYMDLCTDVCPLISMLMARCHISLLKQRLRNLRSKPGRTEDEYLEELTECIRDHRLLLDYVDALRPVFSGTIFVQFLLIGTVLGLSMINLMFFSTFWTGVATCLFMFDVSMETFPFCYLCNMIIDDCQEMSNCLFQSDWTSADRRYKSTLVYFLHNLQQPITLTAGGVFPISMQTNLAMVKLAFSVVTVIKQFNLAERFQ
# T2 sequence (Q8WTE7 whole entry): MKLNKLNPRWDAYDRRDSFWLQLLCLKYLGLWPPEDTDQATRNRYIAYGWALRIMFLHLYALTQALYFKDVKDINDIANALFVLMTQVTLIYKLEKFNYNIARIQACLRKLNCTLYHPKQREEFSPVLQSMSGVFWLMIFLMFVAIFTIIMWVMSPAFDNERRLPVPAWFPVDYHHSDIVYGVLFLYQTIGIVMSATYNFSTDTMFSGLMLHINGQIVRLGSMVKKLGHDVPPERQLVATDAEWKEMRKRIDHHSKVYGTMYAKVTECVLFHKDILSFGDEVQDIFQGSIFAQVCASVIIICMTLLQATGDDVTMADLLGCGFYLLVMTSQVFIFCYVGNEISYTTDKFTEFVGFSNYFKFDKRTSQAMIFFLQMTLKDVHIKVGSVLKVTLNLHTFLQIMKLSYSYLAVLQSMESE
# T2 sequence (Q7QCC7 whole entry partner): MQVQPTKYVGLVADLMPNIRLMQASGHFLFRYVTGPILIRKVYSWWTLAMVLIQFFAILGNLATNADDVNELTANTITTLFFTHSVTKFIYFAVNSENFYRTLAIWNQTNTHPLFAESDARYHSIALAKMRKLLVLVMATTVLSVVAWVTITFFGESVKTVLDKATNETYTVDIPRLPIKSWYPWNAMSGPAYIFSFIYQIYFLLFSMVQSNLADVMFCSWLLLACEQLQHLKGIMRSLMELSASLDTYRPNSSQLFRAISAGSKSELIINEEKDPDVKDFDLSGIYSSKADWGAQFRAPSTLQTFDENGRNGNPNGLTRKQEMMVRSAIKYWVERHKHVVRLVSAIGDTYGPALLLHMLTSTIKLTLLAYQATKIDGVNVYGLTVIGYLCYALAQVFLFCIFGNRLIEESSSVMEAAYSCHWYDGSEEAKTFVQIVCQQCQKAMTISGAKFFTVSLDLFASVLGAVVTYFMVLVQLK
# T3 sequence (Q8WTE6 whole entry): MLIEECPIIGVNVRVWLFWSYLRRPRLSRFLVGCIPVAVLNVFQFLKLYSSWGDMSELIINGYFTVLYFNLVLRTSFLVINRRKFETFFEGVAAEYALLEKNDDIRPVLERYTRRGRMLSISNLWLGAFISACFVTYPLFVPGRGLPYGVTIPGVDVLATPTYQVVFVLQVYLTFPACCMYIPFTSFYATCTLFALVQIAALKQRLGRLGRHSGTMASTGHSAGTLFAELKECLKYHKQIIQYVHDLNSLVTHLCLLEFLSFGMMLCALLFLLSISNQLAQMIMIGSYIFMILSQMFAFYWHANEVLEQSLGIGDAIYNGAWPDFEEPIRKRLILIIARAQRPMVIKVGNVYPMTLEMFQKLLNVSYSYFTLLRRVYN
# T3 sequence (Q7QCC7 whole entry partner): as the sequence (Q7QCC7 whole entry partner) above
smiles,measurement,setting,value
C=CC(O)CCCCC (stereo not shown) [1-octen-3-ol],EC50,[1],186 nM
CCCCCC(C)=O [2-heptanone],concentration that could be detected,[2],0.018 M
same,Sensitivity limit,[3]; estimated visually from graph,10^−8 − 10^−6 M*
same,EC50,[3]; ref 12,45600 nM
CCc1ccc(OC)c(O)c1 [4-ethyl guaiacol],limit of detection,[4]; nanodiscs 1:100 dilution,below 1 fM
same,concentration at which clear electronic response starts,[4]; real time current measurement mode,1 fM
same,LOD,[5],0.1 fM
Cc1ccc(O)cc1 [4-methylphenol],EC50,[6],412 nM
"CCCC/C=C\CCC/C=C/CCCCC=O [(E,Z) -6,11-hexadecadienal]",Sensitivity limit,[7],10^−15 M*
CCC/C=C\C=C\CCCCCCCCC=O [Bombykal],EC50,[8],2030 nM
same,Sensitivity limit,[8],300 nM
same,Sensitivity limit,[9]; estimated visually from graph,10^−8 − 10^−6 M*
same,EC50,[9]; ref 12,380 nM
CCC/C=C\C=C\CCCCCCCCCO [Bombykol],EC50,[10],4390 nM
same,Sensitivity limit,[10],1000 nM
same,Sensitivity limit,[11]; estimated visually from graph,10^−8 − 10^−6 M*
same,EC50,[11]; ref 12,250 nM
same,EC50,[12]; ref 29,34000 nM
same,EC50,[12]; ref 30,5900 nM
CC(C)=CCCC(C)=CC=O [Citral],Sensitivity limit,[13],10^−15 M*
CC/C=C/CCCCCCCCCCOC(C)=O [E11 pheromone],EC50,[14],12.5 nM
same,Sensitivity limit,[14],10^−9 M^
CC/C=C/CCCCCCCCCCO [E11-14:OH],Sensitivity limit,[15]; estimated visually from graph,10^−7 M*
same,EC50,[15]; ref 27,1000 nM
C/C=C/CCCCCCCCCCCOC(C)=O [E12-14:OAc],EC50,[16],260 nM
CCCC/C=C/CCCCCCCCCC=O [EII-16:Ald],Sensitivity limit,[17]; estimated visually from graph,10^−7 M*
same,EC50,[17]; ref 28,1000 nM
"C/C=C/C/C=C\CCCCCCCCOC(C)=O [Z9, E12-14:OAc]",EC50,[18],3160 nM
CCCC/C=C\CCCCCCCCO [Z9-14:OH],EC50,[19],969 nM
CCCC/C=C\CCCCCCCC=O [Z9-14:ald],EC50,[20],979 nM
CCCC/C=C\CCCCCCCCCCOC(C)=O [Z11-16:Ac],Sensitivity limit,[21]; estimated visually from graph,10^−7 M*
same,EC50,[21]; ref 28,1000 nM
CCCC/C=C\CCCCCCCCCC=O [Z11-16:Ald],Sensitivity limit,[22]; estimated visually from graph,10^−8 − 10^−6 M*
same,EC50,[22]; ref 12,2520 nM
same,EC50,[23],979 nM
O=C(O)c1ccccc1 [benzoic acid],Sensitivity limit,[24]; estimated visually from graph,10^−14 M*
same,EC50,[24]; ref 18,0.0142 nM
same,Sensitivity limit,[25]; estimated visually from graph,10^−11 M*
same,EC50,[25]; ref 18,0.144 nM
CCCC(=O)OCC [ethyl butyrate],Sensitivity limit,[26]; estimated visually from graph,10^−12 M*
same,EC50,[26]; ref 3,0.0158 nM
C=CCc1ccc(O)c(OC)c1 [eugenol],Ec50 (Log),[27],Log = −6.54
same,Sensitivity limit (Log),"[27]; ref 23, estimated visually from graph",Log = −7*
same,EC50,[28],34.4 nM
CCCCCCCCC1CCC(=O)O1 (stereo not shown) [g-dodecalactone],Ec50 (Log),[29],Log = −7.01
same,Sensitivity limit (Log),"[29]; ref 25, estimated visually from graph",Log = −8*
CC(C)=CCC/C(C)=C/CO [geraniol],detection limit,[30],~10^−6 M
same,Sensitivity limit,[31]; estimated visually from graph,10^−14 M*
same,EC50,[31]; ref 17,0.0018 nM
CC(=O)OC/C=C(\C)CCC=C(C)C [geranyl acetate],EC50,[32],1000 nM
c1ccc2[nH]ccc2c1 [indole],EC50,[33],137 nM
same,EC50,[34],16.7 nM
C=CC(C)(O)CCC=C(C)C (stereo not shown) [linalool],detection limit,[30],~10^−6 M
same,Sensitivity limit,[35]; estimated visually from graph,10^−10 M*
same,EC50,[35]; ref 18,4.69 nM

# Source: patent US12044651B2, “Sensor device and methods” (SCENTIAN BIO LIMITED, priority 2016, dated 2024)
